Reference: ChEMBL document CHEMBL4680273, “Teixobactin: A Paving Stone toward a New Class of Antibiotics?” (2020)
In brackets after ≈: the same amount, converted by molar mass. One block for each molecule: values may come before it.

Tests used:
Type in all cases: functional
Staphylococcus aureus [1] = experiment: Antibacterial activity against methicillin resistant Staphylococcus aureus ATCC 33591 incubated for 24 hrs
Staphylococcus aureus [2] = experiment: Antibacterial activity against Staphylococcus aureus SH1000 incubated for 24 hrs by CLSI-broth microdilution method
Bacillus subtilis = experiment: Antibacterial activity against Bacillus subtilis ATCC 6051 incubated for 16 hrs by UV/Visible absorbance method
Staphylococcus aureus [3] = experiment: Antibacterial activity against Staphylococcus aureus ATCC 29213 incubated for 16 hrs by UV/Visible absorbance method
[4] = Staphylococcus aureus, SH1000, read-out: MIC

SMILES: CC[C@H](C)[C@H](NC(=O)[C@@H](Cc1ccccc1)NC)C(=O)N[C@@H](CO)C(=O)N[C@H](CCC(N)=O)C(=O)N[C@@H](C(=O)N[C@H](C(=O)N[C@@H](CO)C(=O)N[C@H]1C(=O)N[C@@H](C)C(=O)N[C@H](C)C(=O)N[C@@H]([C@@H](C)CC)C(=O)O[C@H]1C)[C@@H](C)CC)[C@@H](C)CC
MIC (Staphylococcus aureus [1]): 32 µg/mL (≈ 27.6 µM)

MIC (Staphylococcus aureus [2]; [4]): 32 µg/mL (≈ 24.6 µM)
SMILES: CC[C@H](C)[C@H](NC(=O)[C@@H](Cc1ccccc1)NC)C(=O)N[C@@H](CO)C(=O)N[C@H](CCC(N)=O)C(=O)N[C@@H](C(=O)N[C@H](C(=O)N[C@@H](CO)C(=O)N[C@H]1C(=O)N[C@@H](C)C(=O)N[C@@H](CCCNC(=N)N)C(=O)NC(CCCC(F)(F)F)C(=O)O[C@H]1C)[C@@H](C)CC)[C@@H](C)CC (some centres not stated)

MIC (Bacillus subtilis): 1 µg/mL (≈ 0.771 µM)
SMILES: CC[C@H](C)[C@H](NC(=O)[C@@H](Cc1ccccc1)NC)C(=O)N[C@@H](CO)C(=O)N[C@H](CCC(N)=O)C(=O)N[C@@H](C(=O)NC(C(=O)N[C@@H](CO)C(=O)N[C@H]1C(=O)N[C@@H](C)C(=O)N[C@@H](CCCNC(=N)N)C(=O)NC(C2CCCCC2)C(=O)O[C@H]1C)C1CCCCC1)[C@@H](C)CC (some centres not stated)

MIC (Staphylococcus aureus [3]): 4 µg/mL (≈ 3.14 µM)
SMILES: CC[C@H](C)[C@H](NC(=O)[C@@H](Cc1ccccc1)NC)C(=O)N[C@@H](CO)C(=O)N[C@H](CCC(N)=O)C(=O)N[C@@H](C(=O)N[C@H](C(=O)N[C@@H](CO)C(=O)N[C@H]1C(=O)N[C@@H](C)C(=O)N[C@@H](CCCNC(=N)N)CC(=O)N[C@@H]([C@@H](C)CC)CC(=O)O[C@H]1C)[C@@H](C)CC)[C@@H](C)CC

MIC (Staphylococcus aureus [3]): > 32 µg/mL
SMILES: CC[C@H](C)[C@@H]1NC(=O)[C@H](CCCNC(=N)N)NC(=O)[C@H](C)NC(=O)[C@@H](NC(=O)[C@H](CO)NC(=O)[C@@H](NC(=O)[C@H](NC(=O)[C@@H](CCC(N)=O)NC(=O)[C@H](CO)NC(=O)[C@@H](NC(=O)[C@@H](Cc2ccccc2)NC)[C@@H](C)CC)[C@@H](C)CC)[C@@H](C)CC)[C@H](C)NC1=O

MIC (Staphylococcus aureus [2]; [4]): 4 µg/mL (≈ 3.18 µM)
SMILES: CCCCC1NC(=O)[C@H](CCCNC(=N)NC)NC(=O)[C@H](C)NC(=O)[C@H](NC(=O)[C@H](CO)NC(=O)[C@@H](NC(=O)[C@H](NC(=O)[C@@H](CCC(N)=O)NC(=O)[C@H](CO)NC(=O)[C@@H](NC(=O)[C@@H](Cc2ccccc2)NC)[C@@H](C)CC)[C@@H](C)CC)[C@@H](C)CC)[C@H](C)OC1=O (some centres not stated)

SMILES: CC[C@H](C)[C@H](NC(=O)[C@@H](Cc1ccccc1)NC)C(=O)N[C@@H](C)C(=O)N[C@H](CCC(N)=O)C(=O)N[C@@H](C(=O)N[C@H](C(=O)N[C@@H](CO)C(=O)N[C@H]1C(=O)N[C@@H](C)C(=O)N[C@@H](CCCNC(=N)N)C(=O)N[C@@H]([C@@H](C)CC)C(=O)O[C@H]1C)[C@@H](C)CC)[C@@H](C)CC
MIC (Staphylococcus aureus [1]): 1 µg/mL (≈ 0.814 µM)

MIC (Staphylococcus aureus [3]): > 32 µg/mL
SMILES: CC[C@H](C)[C@@H]1NC(=O)[C@H](CCCNC(=N)N)NC(=O)[C@H](C)NC(=O)[C@H](NC(=O)[C@H](CO)NC(=O)[C@@H](NC(=O)[C@H](NC(=O)[C@@H](CCC(N)=O)NC(=O)[C@H](CO)NC(=O)[C@@H](NC(=O)[C@@H](Cc2ccccc2)NC)[C@@H](C)CC)[C@@H](C)CC)[C@@H](C)CC)[C@@H](C)NC1=O

MIC (Bacillus subtilis): 32 µg/mL (≈ 27.2 µM)
SMILES: CC[C@H](C)[C@H](NC(=O)[C@H](NC(=O)[C@@H](CCC(N)=O)NC(=O)[C@H](CO)NC(=O)[C@H](C)NC(=O)[C@@H](Cc1ccccc1)NC)[C@@H](C)CC)C(=O)N[C@@H](CO)C(=O)N[C@H]1C(=O)N[C@@H](C)C(=O)N[C@@H](CCCCN)C(=O)N[C@@H]([C@@H](C)CC)C(=O)O[C@H]1C

MIC (Staphylococcus aureus [3]): 16 µg/mL (≈ 12.4 µM)
SMILES: CC[C@H](C)[C@H](NC(=O)[C@@H](Cc1ccccc1)NC)C(=O)N[C@@H](CO)C(=O)N[C@H](CCC(N)=O)C(=O)N[C@@H](C(=O)N[C@H](C(=O)N[C@@H](CO)C(=O)N[C@H]1C(=O)N[C@@H](C)CC(=O)N[C@@H](CCCNC(=N)N)CC(=O)N[C@@H]([C@@H](C)CC)CC(=O)O[C@H]1C)[C@@H](C)CC)[C@@H](C)CC

SMILES: CC[C@H](C)[C@H](NC(=O)[C@@H](Cc1ccccc1)NC)C(=O)N[C@@H](CO)C(=O)N[C@H](C)C(=O)N[C@@H](C(=O)N[C@H](C(=O)N[C@@H](C)C(=O)N[C@H]1C(=O)N[C@@H](C)C(=O)N[C@@H](CCCNC(=N)N)C(=O)N[C@@H]([C@@H](C)CC)C(=O)O[C@H]1C)[C@@H](C)CC)[C@@H](C)CC
MIC (Staphylococcus aureus [1]): 1 µg/mL (≈ 0.854 µM)

MIC (Staphylococcus aureus [2]; [4]): ≥ 32 µg/mL
SMILES: CC[C@H](C)[C@H](NC(=O)[C@@H](Cc1ccccc1)NC)C(=O)N[C@@H](CO)C(=O)N[C@H](CCC(N)=O)C(=O)N[C@@H](C(=O)N[C@H](C(=O)N[C@@H](CO)C(=O)N[C@H]1C(=O)N[C@@H](C)C(=O)N[C@@H](CCCNC(=N)N)C(=O)N[C@@H](C)C(=O)O[C@H]1C)[C@@H](C)CC)[C@@H](C)CC

MIC (Staphylococcus aureus [3]): 4 µg/mL (≈ 3.18 µM)
SMILES: CC[C@H](C)[C@H](NC(=O)[C@@H](Cc1ccccc1)NC)C(=O)N[C@@H](CO)C(=O)N[C@H](CCC(N)=O)C(=O)N[C@@H](C(=O)N[C@H](C(=O)N[C@@H](CO)C(=O)N[C@H]1C(=O)N[C@@H](C)C(=O)N[C@@H](CCCNC(=N)N)C(=O)N[C@@H]([C@@H](C)CC)CC(=O)O[C@H]1C)[C@@H](C)CC)[C@@H](C)CC

MIC (Staphylococcus aureus [3]): > 32 µg/mL
SMILES: CC[C@H](C)[C@H](NC(=O)[C@@H](Cc1ccccc1)NC)C(=O)N[C@@H](CO)C(=O)N[C@H](CCC(N)=O)C(=O)N[C@@H](C(=O)N[C@H](C(=O)N[C@@H](CO)C(=O)N[C@H]1C(=O)N[C@@H](C)CC(=O)N[C@@H](CCCNC(=N)N)CC(=O)N[C@@H]([C@@H](C)CC)C(=O)O[C@H]1C)[C@@H](C)CC)[C@@H](C)CC

MIC (Staphylococcus aureus [2]; [4]): 32 µg/mL (≈ 25.8 µM)
SMILES: C=CCCC1NC(=O)[C@H](CCCNC(=N)N)NC(=O)[C@H](C)NC(=O)[C@H](NC(=O)[C@H](CO)NC(=O)[C@@H](NC(=O)[C@H](NC(=O)[C@@H](CCC(N)=O)NC(=O)[C@H](CO)NC(=O)[C@@H](NC(=O)[C@@H](Cc2ccccc2)NC)[C@@H](C)CC)[C@@H](C)CC)[C@@H](C)CC)[C@H](C)OC1=O (some centres not stated)

MIC (Staphylococcus aureus [2]; [4]): 8 µg/mL (≈ 6.5 µM)
SMILES: CCCC1NC(=O)[C@H](CCCNC(=N)N)NC(=O)[C@H](C)NC(=O)[C@H](NC(=O)[C@H](CO)NC(=O)[C@@H](NC(=O)[C@H](NC(=O)[C@@H](CCC(N)=O)NC(=O)[C@H](CO)NC(=O)[C@@H](NC(=O)[C@@H](Cc2ccccc2)NC)[C@@H](C)CC)[C@@H](C)CC)[C@@H](C)CC)[C@H](C)OC1=O (some centres not stated)

MIC (Staphylococcus aureus [3]): > 32 µg/mL
SMILES: CC[C@H](C)[C@@H]1NC(=O)[C@H](CCCNC(=N)N)NC(=O)[C@H](C)NC(=O)[C@@H](NC(=O)[C@H](CO)NC(=O)[C@@H](NC(=O)[C@H](NC(=O)[C@@H](CCC(N)=O)NC(=O)[C@H](CO)NC(=O)[C@@H](NC(=O)[C@@H](Cc2ccccc2)NC)[C@@H](C)CC)[C@@H](C)CC)[C@@H](C)CC)[C@@H](C)NC1=O

MIC (Staphylococcus aureus [3]): 8 µg/mL (≈ 6.36 µM)
SMILES: CC[C@H](C)[C@H](NC(=O)[C@@H](Cc1ccccc1)NC)C(=O)N[C@@H](CO)C(=O)N[C@H](CCC(N)=O)C(=O)N[C@@H](C(=O)N[C@H](C(=O)N[C@@H](CO)C(=O)N[C@H]1C(=O)N[C@@H](C)C(=O)N[C@@H](CCCNC(=N)N)CC(=O)N[C@@H]([C@@H](C)CC)C(=O)O[C@H]1C)[C@@H](C)CC)[C@@H](C)CC

SMILES: CC[C@H](C)[C@H](NC(=O)[C@@H](Cc1ccccc1)NC)C(=O)N[C@@H](CO)C(=O)N[C@H](CCC(N)=O)C(=O)N[C@@H](C(=O)N[C@H](C(=O)N[C@@H](CO)C(=O)N[C@H]1C(=O)N[C@@H](C)C(=O)N[C@@H](C)C(=O)N[C@@H]([C@@H](C)CC)C(=O)O[C@H]1C)[C@@H](C)CC)[C@@H](C)CC
MIC (Staphylococcus aureus [1]): 1 µg/mL (≈ 0.863 µM) | MIC (Staphylococcus aureus [3]): 1 µg/mL (≈ 0.863 µM)

MIC (Staphylococcus aureus [2]; [4]): 16 µg/mL (≈ 13.2 µM)
SMILES: CCC1NC(=O)[C@H](CCCNC(=N)N)NC(=O)[C@H](C)NC(=O)[C@H](NC(=O)[C@H](CO)NC(=O)[C@@H](NC(=O)[C@H](NC(=O)[C@@H](CCC(N)=O)NC(=O)[C@H](CO)NC(=O)[C@@H](NC(=O)[C@@H](Cc2ccccc2)NC)[C@@H](C)CC)[C@@H](C)CC)[C@@H](C)CC)[C@H](C)OC1=O (some centres not stated)

MIC (Staphylococcus aureus [3]): 32 µg/mL (≈ 25.1 µM)
SMILES: CC[C@H](C)[C@H](NC(=O)[C@@H](Cc1ccccc1)NC)C(=O)N[C@@H](CO)C(=O)N[C@H](CCC(N)=O)C(=O)N[C@@H](C(=O)N[C@H](C(=O)N[C@@H](CO)C(=O)N[C@H]1C(=O)N[C@@H](C)CC(=O)N[C@@H](CCCNC(=N)N)C(=O)N[C@@H]([C@@H](C)CC)CC(=O)O[C@H]1C)[C@@H](C)CC)[C@@H](C)CC

MIC (Staphylococcus aureus [3]): 32 µg/mL (≈ 25.1 µM)
SMILES: CC[C@H](C)[C@H](NC(=O)[C@@H](Cc1ccccc1)NC)C(=O)N[C@@H](CO)C(=O)N[C@H](CCC(N)=O)C(=O)N[C@@H](C(=O)N(C)[C@H](C(=O)N[C@@H](CO)C(=O)N[C@H]1C(=O)N[C@@H](C)CC(=O)N[C@@H](CCCNC(=N)N)C(=O)N[C@@H]([C@@H](C)CC)C(=O)O[C@H]1C)[C@@H](C)CC)[C@@H](C)CC

MIC (Bacillus subtilis): 16 µg/mL (≈ 13.6 µM)
SMILES: CC[C@H](C)[C@H](NC(=O)[C@@H](C)NC(=O)[C@@H](CCC(N)=O)NC(=O)[C@H](CO)NC(=O)[C@@H](NC(=O)[C@@H](Cc1ccccc1)NC)[C@@H](C)CC)C(=O)N[C@@H](CO)C(=O)N[C@H]1C(=O)N[C@@H](C)C(=O)N[C@@H](CCCCN)C(=O)N[C@@H]([C@@H](C)CC)C(=O)O[C@H]1C

MIC (Staphylococcus aureus [3]): 1 µg/mL (≈ 0.804 µM)
SMILES: CC[C@H](C)[C@@H]1NC(=O)[C@H](CCCNC(=N)N)NC(=O)[C@H](C)NC(=O)[C@H](NC(=O)[C@H](CO)NC(=O)[C@@H](NC(=O)[C@H](NC(=O)[C@@H](CCC(N)=O)NC(=O)[C@H](CO)NC(=O)[C@@H](NC(=O)[C@@H](Cc2ccccc2)NC)[C@@H](C)CC)[C@@H](C)CC)[C@@H](C)CC)[C@H](C)NC1=O

MIC (Staphylococcus aureus [2]): 16 µg/mL (≈ 12.6 µM)
SMILES: CCCCC1NC(=O)[C@H](CCCN/C(=N\C)NC)NC(=O)[C@H](C)NC(=O)[C@H](NC(=O)[C@H](CO)NC(=O)[C@@H](NC(=O)[C@H](NC(=O)[C@@H](CCC(N)=O)NC(=O)[C@H](CO)NC(=O)[C@@H](NC(=O)[C@@H](Cc2ccccc2)NC)[C@@H](C)CC)[C@@H](C)CC)[C@@H](C)CC)[C@H](C)OC1=O (stereo in doubt; 127)

MIC (Staphylococcus aureus [2]; [4]): 16 µg/mL (≈ 12.6 µM)
SMILES: CCCCC1NC(=O)[C@H](CCCN/C(=N\C)NC)NC(=O)[C@H](C)NC(=O)[C@H](NC(=O)[C@H](CO)NC(=O)[C@@H](NC(=O)[C@H](NC(=O)[C@@H](CCC(N)=O)NC(=O)[C@H](CO)NC(=O)[C@@H](NC(=O)[C@@H](Cc2ccccc2)NC)[C@@H](C)CC)[C@@H](C)CC)[C@@H](C)CC)[C@H](C)OC1=O (stereo in doubt; 128)
